Assay results taken from US10660909B2, “Method for treating cancer using chemokine antagonists” (Syntrix Biosystems Inc., priority 2016, dated 2020).

Columns and labels:
[1] = test system: TRIA mouse model of melanoma; test: TRIA mouse model of melanoma; type: in vivo; settings: TRIA mice; SX-682 oral via medicated feed ~10 mg/day/mouse; CP 50 mg/kg ip once weekly; FIG. 7 and 8
Description: The Tyrosine-Hras/Ink/Arf null (TRIA) is a validated mouse model of melanoma features an immuno-competent autochthonous tumor; Ras events are in >70% of all melanomas, and ˜50% lose the INK4a/ARF locus which, with B-RAF mutations, is the most common lesion of this cancer (Sharpless, 2016, Cancer Cell 29:832-45). Treatment regimens were started following tumor manifestation. SX-682 was given orally via medicated feed, at an approximate dose of 10 mg/day/mouse. Carboplatin (CP) was administered once weekly via intraperitoneal injection at a dose of 50 mg/kg.

[2] = test system: MDSCs isolated from blood of AOM/DSS-treated BALBc mice; test: GROα-mediated MDSC migration (transwell, flow cytometry count); type: cell-based, mouse; settings: SX-682 0.1, 1 and 10 μM; GROα (CXCL1) 100 ng/ml; 12 hours; FIG. 2
Description: Using the of method of Katoh, 2013, Cancer Cell, 24:631-44 (herein incorporated by reference), to induce and isolate MDSCs, male BALBc mice were given a single intraperitoneal injection of azoxymethane (AOM, 10 mg/kg). Seven days later, these mice were given 4 cycles of water and water containing 1.25% dextran sulfate sodium (DSS). One cycle consisted of providing mice with regular drinking water for 7 days, followed by 1.25% aqueous DSS for 7 days, followed by regular drinking water for 7 days. MDSCs were isolated from femurs and blood of AOM/DSS-treated BALBc mice using the Myeloid-Derived Suppressor Cell Isolation Kit (Miltenyi Biotec) after lysis of red blood cells (RBC) according to the manufacturer's instructions. GROα (CXCL1) was placed in the bottom chamber of a 24-well plate at a concentration of 100 ng/ml. MDSCs isolated from blood of AOM/DSS-treated BALBc mice were seeded at a density of 1×10^6/well in the upper chamber (3 m, BD Falcon). After incubation for 12 hours, migrated cells were quantified by flow cytometry using CountBright Absolute Counting Beads (Molecular Probes). […] The test concentrations of SX-682 were 0.1, 1 and 10 μM, and the DMSO concentration was ≤1%.

[3] = test system: Pten^pc−/−p53^pc−/−Smad4^pc−/− mouse prostate tumors; test: Pten/p53/Smad4 triple knockout mouse model of castration resistant prostate cancer; type: in vivo; settings: SX-682 50 mg/kg b.i.d. oral gavage; ICB 200 μg each anti-PD1 and anti-CTLA4 3×/week; 4-6 weeks; FIG. 12
Description: The genetically engineered Pten^pc−/−p53^pc−/−Smad4^pc−/− mouse is a prostate-specific PB promoter-driven (PB-Cre4) conditional triple knockout model (i.e., prostate-specific deletion of all three tumor suppressors, Pten, p53 and Smad4 occurs in the ‘prostate cancer’ or ‘pc’). […] SX-682 was used as a spray dried dispersion (Formulation Example 1), and was administered to mice via oral gavage as a suspension in 0.5% aq. methylcellulose. Treatment was continued for 4-6 weeks and prostate weights measured to determine tumor burden. […] Mean±SE.

[4] = test system: B16-F10 mouse melanoma cells; test: B16-F10 syngeneic mouse model of melanoma; type: in vivo; settings: B16-F10 mice; SX-682 50 mg/kg twice daily oral; anti-PD-1 100 μg twice weekly ip; treatment from day 18; N=4-5; FIG. 9
Description: The B16-F10 mouse model is a validated model of melanoma, Overwijk, 2001, Curr Protoc Immunol, Chapter 20: Units 20-21 (herein incorporated by reference). It was used to evaluate the effect of SX-682 alone and in combination with anti-PD1 antibody. B16-F10 mouse melanoma cells were cultured, then mice were injected with 0.5×10^6 B16-F10 cells on day 0, and treatment was initiated on day 18. Mice were treated with vehicle (control), SX-682 alone (50 mg/kg twice daily, oral), anti-PD-1 alone (100 μg twice weekly, ip), or SX-682 in combination with anti-PD-1 (N=4-5 per cohort). SX-682 was used as a spray dried dispersion (Formulation Example 1), and was administered to mice via oral gavage as a suspension in 0.5% aq methylcellulose. […] Data and error bars are the mean±SE.

[5] = test system: T11 mouse model of breast cancer; test: T11 mouse model of breast cancer; type: in vivo; settings: T11 mice; SX-682 oral via medicated feed ~10 mg/day/mouse; CP 50 mg/kg ip once weekly; 1-2 weeks; N=7; P<0.0001; FIG. 4
From the text: The T11 model is a validated mouse model of breast cancer, which derives from the serial orthotopic transplantation of a murine breast tumor derived from a p53-null mouse into a syngeneic p53 competent recipient, and features sporadic, somatic K-Ras mutation (Herschkowitz, 2012, Proc Natl Acad Sci, 109:2778-83, herein incorporated by reference). Tumors from the T11 model display an RNA expression pattern characteristic of the human claudin-low disease, and are extremely aggressive, with the majority of untreated animals surviving less than 21 days from the time of enrollment in the therapy studies. Treatment regimens were started following tumor manifestation. SX-682 was given orally via medicated feed, at an approximate dose of 10 mg/day/mouse. In brief, the medicated feed was prepared by Research Diets (New Brunswick, N.J.) by incorporating 15.2 grams of SX-682 spray dried dispersion (as prepared in Formulation Example 1) into 1042 grams of standard rodent diet with 10% kcals from fat. The medicated feed was formed into pellets. Carboplatin (CP) was administered once weekly via intraperitoneal injection at a dose of 50 mg/kg. […] Mean±SE. *** P<0.0001 (linear regression).

[6] = test system: 60 human tumor cell line panel; test: NCI 60 human tumor cell line panel, SRB growth inhibition; type: cell-based
Description: The chemokine CXCL8 and its receptors CXCR1 and CXCR2 have been identified as important mediators of cellular proliferation for a number of tumor cell types. To validate the relationship between CXCR1 and CXCR2 receptor antagonism and inhibition of tumor cell proliferation, SX-682 was evaluated against the 60 human tumor cell line panel at five concentration levels (0.01, 0.1, 1, 10, 100 μM) as performed by the Developmental Therapeutics Program at the National Cancer Institute (Shoemaker, 2006, Nat Rev Cancer, 6:813-23).
The human tumor cell lines of the cancer screening panel were grown in RPMI 1640 medium containing 5% fetal bovine serum and 2 mM L-glutamine. Cells were inoculated into 96 well microtiter plates in 100 μL at plating densities ranging from 5,000 to 40,000 cells/well depending on the doubling time of individual cell lines. After cell inoculation, the microtiter plates were incubated at 37° C., 5% CO2, 95% air and 100% relative humidity for 24 h prior to addition of SX-682.
After 24 h, two plates of each cell line are fixed in situ with TCA, to represent a measurement of the cell population for each cell line at the time of drug addition (Tz). SX-682 was solubilized in dimethyl sulfoxide at 400-fold the desired final maximum test concentration and stored frozen prior to use. At the time of SX-682 addition, an aliquot of frozen concentrate was thawed and diluted to twice the desired final maximum test concentration with complete medium containing 50 μg/ml gentamicin. Additional four, 10-fold or ½ log serial dilutions are made to provide a total of five drug concentrations plus control. Aliquots of 100 μl of these different drug dilutions were added to the appropriate microtiter wells already containing 100 μl of medium, resulting in the required final drug concentrations.
Following drug addition, the plates were incubated for an additional 48 h at 37° C., 5% CO2, 95% air, and 100% relative humidity. For adherent cells, the assay was terminated by the addition of cold TCA. Cells were fixed in situ by the gentle addition of 50 μl of cold 50% (w/v) TCA (final concentration, 10% TCA) and incubated for 60 minutes at 4° C. The supernatant was discarded, and the plates were washed five times with tap water and air dried. Sulforhodamine B (SRB) solution (100 μl) at 0.4% (w/v) in 1% acetic acid was added to each well, and plates were incubated for 10 minutes at room temperature. After staining, unbound dye was removed by washing five times with 1% acetic acid and the plates were air dried. Bound stain was subsequently solubilized with 10 mM TRIS, and the absorbance was read on an automated plate reader at a wavelength of 515 nm. For suspension cells, the methodology is the same except that the assay was terminated by fixing settled cells at the bottom of the wells by gently adding 50 μl of 80% TCA (final concentration, […]). Using the seven absorbance measurements (time zero, (Tz), control growth, (C), and test growth in the presence of drug at the five concentration levels (Ti)), the percentage growth was calculated at each of the drug concentrations levels. Percentage growth inhibition was calculated as: (Ti−Tz)/(C−Tz)×100 for concentrations for which Ti>/=Tz (Ti−Tz)/Tz×100 for concentrations for which Ti<Tz.
Three dose response parameters were calculated for each experimental agent. […] The drug concentration resulting in total growth inhibition (TGI) is calculated from Ti=Tz. The LC50 (concentration of drug resulting in a 50% reduction in the measured protein at the end of the drug treatment as compared to that at the beginning) indicating a net loss of cells following treatment is calculated from (Ti−Tz)/Tz×100=−50. Values are calculated for each of these three parameters if the level of activity is reached; however, if the effect is not reached or is exceeded, the value for that parameter is expressed as greater or less than the maximum or minimum concentration tested.

[7] = test system: Lewis lung carcinoma (LLC); test: LLC syngeneic mouse model of lung cancer; type: in vivo; settings: LLC mice; SX-682 50 mg/kg twice daily oral; anti-PD-1 100 μg twice weekly ip; treatment from day 18; N=5; FIG. 10
Description: The Lewis lung carcinoma (LLC) mouse model (Kellar, 2015, Biomed Res Int, 2015:621324, herein incorporated by reference) was used to evaluate the effect of SX-682 alone and in combination with anti-PD-1 antibody. LLC mouse […] cells were cultured, then mice were injected with 0.5×10^6 LLC cells on day 0, and on day 18 treatment was initiated. Mice were treated with vehicle (control), SX-682 alone (50 mg/kg twice daily, oral), anti-PD-1 alone (100 μg twice weekly, ip), or SX-682 in combination with anti-PD-1 (N=5 per cohort). SX-682 was used as a spray dried dispersion (Formulation Example 1), and was administered to mice via oral gavage as a suspension in 0.5% aq. methylcellulose. The results of this experiment can be seen in FIG. 10 and FIG. 11.

[8] = test system: C3Tag mouse model of breast cancer; test: C3Tag mouse model of breast cancer; type: in vivo; settings: C3Tag mice; for median survival: SX-682 ~10 mg/day/mouse oral, CP 50 mg/kg ip weekly, up to 60 days, vehicle 18 days, FIG. 6
From the text: The C31-T-antigen (C3Tag) mouse model is a validated model of human triple-negative basal cell breast cancer as shown by gene expression analysis (Maroulakou, 1994, Proc Natl Acad Sci, 91:11236-40, herein incorporated by reference). The expressed large T-antigen binds and inactivates the RB and p53 tumor suppressor genes, explaining why this model faithfully recapitulates human basal breast cancer, which also harbors RB and p53 inactivation. This model also has frequent K-Ras amplification and infrequent Ras mutations. Treatment regimens were started following tumor manifestation. SX-682 was given orally via medicated feed, at an approximate dose of 10 mg/day/mouse. Carboplatin (CP) was administered once weekly via intraperitoneal injection at a dose of 50 mg/kg.

O=C(Nc1ccc(F)cc1)c1cnc(SCc2cc(OC(F)(F)F)ccc2B(O)O)nc1 [SX-682]
tumor growth (tumor volume) [1]: significantly slowed tumor growth comparable to CP alone
inhibition of GROα-mediated MDSC migration [2]: effectively inhibit GROα-mediated MDSC migration in a dose-dependent manner
tumor burden (prostate weight) [3]: inhibited prostate cancer
tumor growth (tumor area) [4]: significantly slowed tumor growth
tumor growth (tumor volume) [5]: effective therapy for breast cancer
proliferation of human tumor cells ([6]; 60 cell lines, 0.01, 0.1, 1, 10, 100 μM, 48 h, FIG. 3A-3I): directly affect the proliferation of human tumor cells
inhibition of tumor cell proliferation, renal cancer cell lines ([6]; 786-0, CAK-1, TK-10, RXF 393, UO-31, ACHN, SN12C, FIG. 3G): direct inhibition of tumor cell proliferation
inhibition of tumor cell proliferation, non-small cell lung cancer cell lines ([6]; A549, H226, H460, H23, H522, H322M, HOP-62, HOP-92, FIG. 3B): direct inhibition of tumor cell proliferation
inhibition of tumor cell proliferation, leukemia cell lines ([6]; CCRF-CEM, MOLT-4, HL-60, RPMI-8226, K-562, SR, 10^−8 to 10^−4 M, FIG. 3A): direct inhibition of tumor cell proliferation
inhibition of tumor cell proliferation, colon cancer cell lines ([6]; COLO 205, HCT-15, HCC-2998, KM12, HCT-116, SW-620, FIG. 3C): direct inhibition of tumor cell proliferation
inhibition of tumor cell proliferation, ovarian cancer cell lines ([6]; IBROV1, OVCAR-8, OVCAR-3, NCI/ADR-RES, OVCAR-5, SK-OV-3, FIG. 3F): direct inhibition of tumor cell proliferation
inhibition of tumor cell proliferation, melanoma cell lines ([6]; LOX IMVI, MDA-MB-435, SK-MEL-5, MALME-3M, SK-MEL-2, UACC-257, M14, SK-MEL-28, UACC-62, FIG. 3E): direct inhibition of tumor cell proliferation
inhibition of tumor cell proliferation, breast cancer cell lines ([6]; MCF7, BT-549, MDA-MB-231, T-47D, HS 578T, MDA-MB-468, FIG. 3I): direct inhibition of tumor cell proliferation
inhibition of tumor cell proliferation, prostate cancer cell lines ([6]; PC-3, DU-145, FIG. 3H): direct inhibition of tumor cell proliferation
inhibition of tumor cell proliferation, CNS cancer cell lines ([6]; SF-268, SNB-19, SF-295, SNB-75, SF-539, FIG. 3D): direct inhibition of tumor cell proliferation
tumor growth (tumor area) [7]: significantly slowed tumor growth
tumor growth (tumor volume) ([8]; SX-682 oral via medicated feed ~10 mg/day/mouse, CP 50 mg/kg ip once weekly, 4-6 weeks, N=10-12, FIG. 5): significantly reduced tumor growth as compared to untreated controls
median survival [8]: 28 days

N.N.O=C([O-])C1(C(=O)[O-])CCC1.[Pt+2] [carboplatin, reference compound]
median survival [8]: 28 days
